Measured values from patent publication US11097034B2, “Compositions and methods of modulating endochondral ossification and bone formation” (CASE WESTERN RESERVE UNIVERISTY, priority 2016, dated 2021).

What was measured:
[1] = test system: unstable tibia fractures; assay: Carbachol injection into tibia fracture callus, μCT; format: in vivo, mouse; details: injected into callus during cartilaginous phase; vs DMEM controls; trend
Protocol: All procedures were performed on adult male wild type (C57BL/6) mice. We created unstable tibia fractures through three point bending and surgically resected nerves proximal to the fracture (either the sciatic nerve, femoral nerve, or both) and compared them to mice who received sham procedures. We injected Carbachol (Cch), a synthetic acetylcholine analogue, into the callus during the cartilaginous phase of healing and compared them to controls that were injected with Dulbecco's Modified Eagle's medium (DMEM) alone. Bone mineral density (BMD) and bone volume were quantified using micro-computed tomography (μCT) analysis. Following μCT the tibiae were processed for histology and stained using the Hall Brunt Quadruple stain (HBQ). The tissue composition was quantified using stereology on an Olympus Cast system.

[2] = test system: bone fracture; assay: Temporal delivery of NGF to bone fracture site; format: in vivo, mice; details: NGF delivery 7-9 days post-fracture compared with 4-6 days
Excerpt: FIGS. 24(A-B) illustrate plots showing the temporal therapeutic delivery of NGF to improve bone fracture healing in mice. (A) Timeline of experimental delivery of NGF to bone fracture site for two different post-fracture time ranges. (B) NGF expression decreases over time post-fracture.

Row | Compound | bone mineral density (BMD), μCT [1] | activation of selected bone healing markers [2]
1 | C[N+](C)(C)CCOC(N)=O [Cch, Carbachol] | higher BMD than controls | –
2 | NGF: nerve growth factor | – | more robust activation of selected bone healing markers
